From patent publication US20260021103A1, “IKZF2 AND CK1-ALPHA DEGRADING COMPOUNDS AND USES THEREOF” (President and Fellows of Harvard College, priority 2022, published 2026)

Legend:
MLL-AF9 Crbn^1391V cells [1] = test: Survival of BL6 mice transplanted with MLL-AF9 Crbn^1391V cells; assay type: in vivo; details: 223 mg/kg once per week
Method: Generation of MLL-AF9 Crbn^1391V leukemic cells: Lin-Sca+ Kit+ (LSK) cells were isolated from bone marrow cells of wildtype or Crbn^1391V mice that were 6 to 8 weeks old. Briefly, bone marrow cells were enriched for c-Kit positive cells by incubating with CD117/c-Kit microbeads and then processed through the autoMACS Pro Separator (Miltenyi Biotec), following the manufacturer's instructions. CKit enriched cells were stained with Lineage antibody cocktail (CD3, CD4, CD8, Gr1, B220, CD19, TER119 conjugated with PeCy5), Scal-Pac Blue, CD34-FITC, SLAM-APC, CD48-PE, and c-KIT-APC-Cy7. After staining, cells were sorted for LSK cells using a BD FACS Aria II instrument. Sorted LSK cells were incubated overnight in Stemspan SFEM medium (Stem Cell Technologies) with 10 ng/ml IL-3, 10 ng/ml IL-6, 50 ng/ml SCF. 10 ng/ml thrombopoietin (TPO), and 20 ng/ml FLT-3 ligand. […]
In vivo drug administration in MLL-AF9 and PDX mouse model: A total of 250,000 of MLL-AF9 BM secondary mouse leukemia cells were injected retroorbitally into 6-8 weeks-old female C57BL/6 recipient mice that has been sublethally irradiated at 450 cGy. […] Mice weight was monitored every day to check for toxicity. Mice were sacrificed when moribund, and organ weights were measured for disease burden. […] Plasma was extracted from each mouse after indicated time and DEG-35 in plasma was measured using HPLC. […]

IKZF2 = molecular target: T1, IKZF2 (Homo sapiens, UniProt Q96SW2+Q9UKS7); test: Flow cytometry for measuring degradation, HEK293T GFP-POI reporter cells (IKZF2); assay type: cell-based
T1 construct: expressed in transfected cells; host or cells: HEK293T (lentiviral transduction, puromycin selection, FACS sorting)
T1 sequence (Q9UKS7 whole entry): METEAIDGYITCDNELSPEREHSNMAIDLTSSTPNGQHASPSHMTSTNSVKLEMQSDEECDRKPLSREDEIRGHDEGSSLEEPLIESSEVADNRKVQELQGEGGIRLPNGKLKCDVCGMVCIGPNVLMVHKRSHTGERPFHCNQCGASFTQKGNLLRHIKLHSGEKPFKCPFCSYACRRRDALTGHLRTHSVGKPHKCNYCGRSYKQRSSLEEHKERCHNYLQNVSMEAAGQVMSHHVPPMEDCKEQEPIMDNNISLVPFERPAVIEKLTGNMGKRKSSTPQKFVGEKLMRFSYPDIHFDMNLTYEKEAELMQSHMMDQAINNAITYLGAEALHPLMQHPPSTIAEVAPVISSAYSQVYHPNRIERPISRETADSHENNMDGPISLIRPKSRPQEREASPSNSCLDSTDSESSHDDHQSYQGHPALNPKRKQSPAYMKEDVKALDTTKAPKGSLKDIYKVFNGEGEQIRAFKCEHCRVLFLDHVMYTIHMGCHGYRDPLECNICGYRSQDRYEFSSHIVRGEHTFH
T1 sequence (Q96SW2 whole entry): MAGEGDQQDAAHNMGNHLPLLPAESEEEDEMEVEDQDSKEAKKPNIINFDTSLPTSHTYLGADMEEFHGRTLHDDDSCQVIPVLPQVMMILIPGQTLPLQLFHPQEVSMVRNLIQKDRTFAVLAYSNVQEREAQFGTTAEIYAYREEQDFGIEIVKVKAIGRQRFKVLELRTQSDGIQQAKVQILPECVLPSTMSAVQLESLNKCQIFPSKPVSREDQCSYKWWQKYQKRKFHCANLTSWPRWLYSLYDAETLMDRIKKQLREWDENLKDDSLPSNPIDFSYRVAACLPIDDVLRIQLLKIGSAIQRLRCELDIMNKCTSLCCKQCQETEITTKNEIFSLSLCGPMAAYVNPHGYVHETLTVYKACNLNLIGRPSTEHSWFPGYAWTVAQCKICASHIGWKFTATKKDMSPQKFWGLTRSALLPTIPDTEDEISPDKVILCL
T1 sequence (Q16531 whole entry partner): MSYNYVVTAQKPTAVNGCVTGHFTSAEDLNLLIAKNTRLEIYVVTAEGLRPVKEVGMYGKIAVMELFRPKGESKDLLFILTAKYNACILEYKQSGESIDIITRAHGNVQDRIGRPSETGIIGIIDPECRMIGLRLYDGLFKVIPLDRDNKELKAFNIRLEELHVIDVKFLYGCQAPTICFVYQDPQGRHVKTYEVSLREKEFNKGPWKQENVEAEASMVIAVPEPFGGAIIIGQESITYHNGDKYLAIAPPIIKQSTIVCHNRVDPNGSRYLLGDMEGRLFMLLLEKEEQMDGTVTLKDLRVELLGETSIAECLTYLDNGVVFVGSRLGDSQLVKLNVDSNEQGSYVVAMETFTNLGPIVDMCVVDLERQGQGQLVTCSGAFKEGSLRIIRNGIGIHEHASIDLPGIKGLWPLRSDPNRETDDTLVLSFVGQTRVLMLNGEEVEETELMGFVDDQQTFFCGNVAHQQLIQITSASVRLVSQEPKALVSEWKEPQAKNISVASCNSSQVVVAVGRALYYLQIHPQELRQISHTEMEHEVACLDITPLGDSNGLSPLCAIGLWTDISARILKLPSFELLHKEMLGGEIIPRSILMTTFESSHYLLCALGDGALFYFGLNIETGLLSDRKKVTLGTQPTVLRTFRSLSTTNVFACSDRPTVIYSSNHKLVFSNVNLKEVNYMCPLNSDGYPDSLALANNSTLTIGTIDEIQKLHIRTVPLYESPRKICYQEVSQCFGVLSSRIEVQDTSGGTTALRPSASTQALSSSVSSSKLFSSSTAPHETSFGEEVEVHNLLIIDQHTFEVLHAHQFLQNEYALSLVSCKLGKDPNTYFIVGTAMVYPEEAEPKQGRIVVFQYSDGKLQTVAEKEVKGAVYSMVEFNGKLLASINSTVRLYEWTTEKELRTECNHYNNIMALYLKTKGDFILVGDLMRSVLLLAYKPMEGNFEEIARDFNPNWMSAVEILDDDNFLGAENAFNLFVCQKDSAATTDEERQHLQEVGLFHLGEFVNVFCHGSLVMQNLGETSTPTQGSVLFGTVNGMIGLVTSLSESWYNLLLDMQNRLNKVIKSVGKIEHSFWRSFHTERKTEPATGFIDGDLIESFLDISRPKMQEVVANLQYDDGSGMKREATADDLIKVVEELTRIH

GSPT1 [2] = molecular target: T2, GSPT1 (Homo sapiens, UniProt P15170+Q96SW2); test: Flow cytometry for measuring degradation, HEK293T GFP-POI reporter cells (GSPT1); assay type: cell-based; set-up: expressed in transfected cells; host or cells: HEK293T; details: 24 h, HEK293T GFP reporter
T2 sequence (P15170 whole entry): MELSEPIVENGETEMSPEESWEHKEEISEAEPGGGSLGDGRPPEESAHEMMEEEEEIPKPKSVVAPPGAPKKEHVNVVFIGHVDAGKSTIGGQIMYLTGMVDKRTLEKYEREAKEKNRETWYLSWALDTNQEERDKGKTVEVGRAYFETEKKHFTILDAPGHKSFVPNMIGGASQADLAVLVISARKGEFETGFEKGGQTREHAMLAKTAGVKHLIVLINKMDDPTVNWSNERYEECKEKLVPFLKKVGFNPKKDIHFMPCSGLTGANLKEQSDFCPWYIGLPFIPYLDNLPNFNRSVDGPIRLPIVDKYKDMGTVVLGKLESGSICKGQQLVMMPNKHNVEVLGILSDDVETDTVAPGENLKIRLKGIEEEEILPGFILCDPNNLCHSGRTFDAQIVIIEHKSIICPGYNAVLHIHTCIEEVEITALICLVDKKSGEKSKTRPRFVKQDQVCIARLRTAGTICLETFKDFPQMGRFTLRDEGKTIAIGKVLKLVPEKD
T2 sequence (Q96SW2 whole entry): as the sequence (Q96SW2 whole entry) above
T2 sequence (Q16531 whole entry partner): as the sequence (Q16531 whole entry partner) above

DLBCL cell line OCI-LY3 = test: 5-day MTT assay in OCI-LY3 cells; assay type: cell-based; details: Homo sapiens, 120 h; OCI-LY3, 5-day MTT assay
Method: (§1) Viability Assay: 10,000 cells (e.g., MOLM-13 cells, MLL-AF9 leukemic cells or normal BM cells) were plated onto flat-bottom 96-well plates in media with increasing concentration of compound up to […]. […] For measuring viability, Cell-Titer Glo kit (Promega) or MTT kit was used following manufacturer's instructions. For Cell-Titer Glo assay, cells were cooled to room temperature for 20-30 min, 100 μL of the cultured cells were transferred to opaque-white bottom 96-well plates and mixed with 100 μL of Cell-Titer Glo reagent. The mixture was incubated for 15 min at room temperature and read using a Synergy H1 Hybrid reader (BioTek) for luminescence. Data was normalized as percentage viability and graphed by non-linear regression curves in Graph Pad PRISM 7.0.

[3] = Pharmacokinetics, plasma concentration in mice; details: male, CD1, mouse, ip, single intraperitoneal injection at 5 mg/kg, read-out: in vivo half-life t1/2 (converted)
Method: (§2) In vivo drug administration in MLL-AF9 and PDX mouse model: A total of 250,000 of MLL-AF9 BM secondary mouse leukemia cells were injected retroorbitally into 6-8 weeks-old female C57BL/6 recipient mice that has been sublethally irradiated at 450 cGy. For AML PDX model, 1 million PDX cells were transplanted by intravenous injection into 8-10 weeks old female NSG mice that had been sublethally irradiated at 200 rads 24 hr before transplant. […] DEG-77 was treated at 223 mg/kg in DMSO in 50 ul volume. Mice weight was monitored every day to check for toxicity. Mice were sacrificed when moribund, and organ weights were measured for disease burden. Spleen and bone marrow cells were isolated and processed for western blot analysis. All animal studies were performed on animal protocols approved by the Institutional Animal Care and Use Committee (IACUC) at Memorial Sloan Kettering Cancer Center. […] Plasma was extracted from each mouse after indicated time and DEG-35 in plasma was measured using HPLC. For examining the toxicity of DEG-77 in the hematopoietic system of Crbn^1391V mice, four rounds of DMSO or 223 mg/kg DEG-77 was treated in 8-12 weeks old female Crbn^1391V mice. Mice were injected once a week and were sacrificed 4 weeks later for blood analysis using the Element HT5 Hematology Analyzer (HESKA) and analysis of the hematopoietic cells by flow cytometry.

MOLM-13 cells [4] = test: Cell viability assay in MOLM-13 cells; assay type: cell-based; details: Homo sapiens, read-out: IC50 (cytotoxicity)
Method: Viability Assay: 10,000 cells (e.g., MOLM-13 cells, MLL-AF9 leukemic cells or normal BM cells) were plated onto flat-bottom 96-well plates in media with increasing concentration of compound up to 100 µM. Cells were cultured for 72 h at 37° C. in a 5% CO2 incubator. For measuring viability, Cell-Titer Glo kit (Promega) or MTT kit was used following manufacturer's instructions. For Cell-Titer Glo assay, cells were cooled to room temperature for 20-30 min, 100 μL of the cultured cells were transferred to opaque-white bottom 96-well plates and mixed with 100 μL of Cell-Titer Glo reagent. The mixture was incubated for 15 min at room temperature and read using a Synergy H1 Hybrid reader (BioTek) for luminescence. Data was normalized as percentage viability and graphed by non-linear regression curves in Graph Pad PRISM 7.0.

[5] = test system: endometrioid ovarian cancer cell line A2780; test: 5-day MTT assay in A2780 cells; assay type: cell-based; details: Homo sapiens, 120 h; A2780, 5-day MTT assay
Method: as §1

[6] = Toxicity in hematopoietic system of Crbn^1391V mice; assay type: in vivo; details: four rounds, 223 mg/kg weekly
Method: as §2

AML PDX cells = test: AML PDX model in NSG mice; assay type: in vivo
Method: as §2

[7] = test system: small cell lung cancer cell line NCI-H1048; test: 5-day MTT assay in NCI-H1048 cells; assay type: cell-based; details: NCI-H1048, 5-day MTT assay
Method: as §1

CK1α = molecular target: T3, CK1α (Homo sapiens, UniProt P48729+Q96SW2); test: Flow cytometry for measuring degradation, HEK293T GFP-POI reporter cells (CK1α); assay type: cell-based
T3 construct: expressed in transfected cells; host or cells: HEK293T (lentiviral transduction, puromycin selection, FACS sorting)
T3 sequence (P48729 whole entry): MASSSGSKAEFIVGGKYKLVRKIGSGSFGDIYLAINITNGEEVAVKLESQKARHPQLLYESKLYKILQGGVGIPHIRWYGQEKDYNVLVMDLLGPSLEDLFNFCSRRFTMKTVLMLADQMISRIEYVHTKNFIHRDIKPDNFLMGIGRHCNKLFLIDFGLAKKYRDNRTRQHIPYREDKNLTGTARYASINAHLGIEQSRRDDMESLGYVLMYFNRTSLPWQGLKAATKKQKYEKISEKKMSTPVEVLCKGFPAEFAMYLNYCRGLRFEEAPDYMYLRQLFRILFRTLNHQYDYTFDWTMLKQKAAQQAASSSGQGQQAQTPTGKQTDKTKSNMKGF
T3 sequence (Q96SW2 whole entry): as the sequence (Q96SW2 whole entry) above
T3 sequence (Q16531 whole entry partner): as the sequence (Q16531 whole entry partner) above

[8] = In vitro metabolic stability; assay type: in vitro ADME; details: read-out: in vitro metabolic stability t1/2
MLL-AF9 Crbn^1391V cells [9] = test: Survival of Crbn^1391V mice transplanted with MLL-AF9 Crbn^1391V cells; assay type: in vivo; details: 223 mg/kg weekly
[10] = In vitro solubility in DMSO; assay type: physicochemical; details: DMSO
GSPT1 [11] = molecular target: T2, GSPT1; test: Western blot of NCI-H1048 cells for GSPT1; assay type: cell-based; details: 24 h
MOLM-13 cells [12] = test: Survival of NSG mice transplanted with MOLM-13 cells; assay type: in vivo; details: MOLM-13 transplanted mice, 223 mg/kg weekly
IKZF1 = molecular target: T4, IKZF1 (Homo sapiens, UniProt Q13422+Q96SW2); test: Flow cytometry for measuring degradation, HEK293T GFP-POI reporter cells (IKZF1); assay type: cell-based; details: 24 h, HEK293T GFP reporter
T4 construct: expressed in transfected cells; host or cells: HEK293T (lentiviral transduction, puromycin selection, FACS sorting)
T4 sequence (Q13422 whole entry): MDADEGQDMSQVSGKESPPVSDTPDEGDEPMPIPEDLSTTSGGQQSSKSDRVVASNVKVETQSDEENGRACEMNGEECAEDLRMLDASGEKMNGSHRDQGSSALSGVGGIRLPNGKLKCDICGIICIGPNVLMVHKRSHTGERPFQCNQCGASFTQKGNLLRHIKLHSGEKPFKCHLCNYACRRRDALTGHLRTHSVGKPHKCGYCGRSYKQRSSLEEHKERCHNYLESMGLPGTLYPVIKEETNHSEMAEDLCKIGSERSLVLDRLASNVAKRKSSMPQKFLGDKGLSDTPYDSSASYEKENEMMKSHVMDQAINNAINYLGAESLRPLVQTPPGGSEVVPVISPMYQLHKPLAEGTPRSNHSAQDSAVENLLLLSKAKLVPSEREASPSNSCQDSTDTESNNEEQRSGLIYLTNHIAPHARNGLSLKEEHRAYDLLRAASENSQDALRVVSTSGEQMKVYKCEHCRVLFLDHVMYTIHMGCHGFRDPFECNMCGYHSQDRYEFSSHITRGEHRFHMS
T4 sequence (Q96SW2 whole entry): as the sequence (Q96SW2 whole entry) above
T4 sequence (Q16531 whole entry partner): as the sequence (Q16531 whole entry partner) above

[13] = 100 nM, 24 h, HEK293T GFP reporter
[14] = 1 μM, 24 h, HEK293T GFP reporter

## COc1cccc2c1OCC(C(=O)Nc1ccc3c(c1)CN(C1CCC(=O)NC1=O)C3=O)=C2 (centres unmarked) [DEG-77, N-(2-(2,6-dioxopiperidin-3-yl)-1-oxoisoindolin-5-yl)-8-methoxy-2H-chromene-3-carboxamide]
MLL-AF9 Crbn^1391V cells [1]
  total body weight (in words): without total body weight loss
MLL-AF9 Crbn^1391V cells [1]; vehicle treated mice 35 days
  survival: 66 days
IKZF2
  DC50: 0.0153 µM
IKZF2; [13]
  IKZF2% degradation at 100 nM: 82.3 ± 0.6%
IKZF2; [14]
  IKZF2% degradation at 1 μM: 94.4 ± 0.1%
GSPT1 [2]; 100 nM
  GSPT1% degradation at 100 nM: 3.7 ± 1.3%
GSPT1 [2]; 1 μM
  GSPT1% degradation at 1 μM: 2.6 ± 1%
DLBCL cell line OCI-LY3
  EC50: 0.014 µM
[3]
  half-life: 8 h
MOLM-13 cells [4]
  IC50: 0.004 µM
[5]
  EC50: 0.027 µM
[6]
  WBC counts (in words): modest reduction of WBC counts
  platelets and RBC counts (in words): remained unchanged
AML PDX cells; PDX AML model, weekly from 4 weeks post-transplant, 223 mg/kg
  survival (in words): significant extension of survival
AML PDX cells; after a single injection, >85% prior to treatment
  engraftment of PDX cells in the bone marrow: around 40%
[7]
  sensitivity of NCI-H1048 cells (in words): selectively sensitive to DEG-35 and not DEG-77
CK1α; [13]
  CK1α % degradation at 100 nM: 68.6 ± 1%
CK1α; [14]
  CK1α % degradation at 1 μM: 72.7 ± 0.8%
CK1α; read-out: DC50 CK1α
  DC50: 0.01 µM
[8]
  half-life: > 6 h
MLL-AF9 Crbn^1391V cells [9]
  survival (in words): significant increase in survival
[10]
  increase in solubility in DMSO compared to DEG-35: 10 fold
GSPT1 [11]
  GSPT1 degradation by Western blot (in words): did not affect protein levels
MOLM-13 cells [12]
  survival (in words): increased survival
IKZF1; 100 nM
  IKZF1% degradation at 100 nM: 10.7 ± 1.1%
IKZF1; 1 μM
  IKZF1% degradation at 1 μM: 29 ± 0.9%
